From patent publication US20260055081A1, “Metal Chelator Compounds, Coordination Complexes, and Methods of Preparation and Use Thereof” (University of Puerto Rico, priority 2022, published 2026)
Where a name gives a salt, the structure may show the parent alone.

How the values were obtained:
[1] = tested on: Jurkat Leukemia cell line; experiment: Jurkat cell viability (MTT assay); format: cell-based; conditions: Homo sapiens; Jurkat cell line, 72 h, MTT
Protocol: Jurkat cell culturing and cell viability studies. Jurkat cells are nonadherent cells, and they were cultured in an RPMI-1640 media (supplemented with 10% FBS (v/v) and 1% antibiotic solution (v/v) of penicillin/streptomycin) in non-tissue-culture treated 25 mL flasks according to the known protocol provided by the supplier ATCC. The cell passaging was done at 70% confluency by taking 3 mL of cells and diluting to 25 mL of fresh media. The cells were incubated at 37° C. in 5% CO2 atmosphere.
Jurkat cytotoxicity of DefNEtTrp (6), Def (5), NEtTrp (4), Trp, and 1:1 combinations of 5 with 4 and 5 with Trp was determined by the colorimetric 3-(4,5-dimethylthiazol-2-yl)-2,5-diphenyltetrazolium bromide (MTT) assay. Incubation conditions were the same in all the steps. Cells in 80-95% confluence (grown in standard circular tissue culture dishes, BD Falcon) were separately seeded into 96-well plates using phenol red free RPMI-1640 media (containing 10% FBS and 1% streptomycin/penicillin) in a volume of 50 μL at a concentration of 5.0×10^5 cells/mL. Following this procedure, the Jurkat cells were treated immediately. Stock solution of the compounds were first prepared in DMF at 5 mM and stored at 4° C. for up to 30 days. The stock solution was diluted to specific concentrations using 1×PBS (0.2-20 μM) while DMF was maintained at 1% (v/v). 50 μL of diluted solutions were added in all cell containing wells with at least six replicates per concentration (n=6). The final percentage (v/v) of DMF was 0.5%. The cells were also co-treated with 5 with 4 and 5 with Trp in a 1:1 mole equivalent ratio over the same concentration range but as a combined concentration of both compounds. Control wells in the plates consisted of one lane of cells treated with media alone including 0.5% DMF (v/v) as the measure of 100% viable cell growth in the media. Another control lane consisted of no cells with media including 0.5% DMF (v/v) as a measure of the background with no viable cells. The plates were incubated for 72 h. At 4 h before completion of the incubation time, 25 μL of MTT solution (sterile filtered 5 mg/mL solution, dissolved in 1×PBS buffer) was added to each well. During addition of the MTT solution, the plates were protected from light. After completion a 50 μL portion of 4% (w/v) SDS solution (sterile filtered, dissolved in Tris buffer 1M, pH=10) was added to each well and incubated to solubilize formazan crystals after MTT cell labeling. The absorbance of each well was measured at 570 nm (absorbance of the formazan product at pH >10.0) and 800 nm (as a background correction) using a Tecan plate reader. The absorbance of all wells was compared to the absorbance of the untreated cells with the MTT set as the 100% viable cell standard and the absorbance of the no cell control set as the 0% viable cell standard. Nonlinear regression in GraphPad Prism 8 was utilized to fit the growth curve over the various drug concentrations to determine the half-maximal inhibitory concentration (IC50). All cell viability experiments, including non-Jurkat cells, were repeated at least once for biological duplicates. To confirm cell death at the higher concentration dosages of the compounds and combinations, dead cells were blue stained with trypan blue and visually inspected under the microscope.

red blood cells = experiment: CO-ADD hemolysis assay; format: cell-based, human; conditions: for hemolysis behavior relative to DefNEtTrp (minor hemolysis): human red blood cells
Protocol: CO-ADD hemolysis assay. Dry compounds ranging from 1-2 mg were delivered to the CO-ADD. The compounds were solubilized to a stock concentration of 10 mg/mL in DMSO. Samples were serially diluted 1:2 fold in water to final testing concentrations of […] while keeping the final DMSO concentration to a maximum of 0.32% (v/v). Each sample concentration was prepared in polypropylene 384-well plates (Corning 3657) for hemolysis assays, all in two duplicate plates (n=2). All sample preparation was conducted using liquid handling robots. Human whole blood (Australian Red Cross) was washed three times with three volumes of 0.9% NaCl (w/v) and resuspended in a concentration of […], determined by manual cell count in a Neubauer hemocytometer. Washed cells were added to the compound-containing plates for a final volume of 50 μL. After a 10 min shake on a plate shaker the plates were then incubated for 1 h at 37° C. After incubation, the plates were centrifuged at 1000 g for 10 min to pellet cells and debris, 25 μL of the supernatant was then transferred to reading plates (384 well, polystyrene plated (PS), Corning CLS3680), with hemolysis determined by measuring the supernatant absorbance at […] (OD405) using a Tecan M1000 Pro monochromator plate reader. HC10 and HC50 (concentration at 10% and 50% hemolysis, respectively) were calculated by curve fitting the inhibition values vs. log(concentration) using a sigmoidal dose-response function with variable fitting values for the top, bottom, and slope. The maximal percentage of hemolysis is reported as Dmax. Hemolysis samples are classified by HC10≤32 μg/mL. […] Melittin was used in 8 concentrations in 2-fold serial dilutions with 50 µg/mL being the highest concentration.

Jurkat cells = experiment: Apoptosis mechanistic cell viability study (Q-VD-OPh); format: cell-based, human; conditions: 10 μM Q-VD-OPh pretreatment, 2 μM cisplatin, 72 h
Protocol: Apoptosis mechanistic cell viability study. Jurkat cells were seeded into 96-well plates, as indicated in the MTT assay described above. The cells were treated with 10 μM of the apoptosis inhibitor Q-VD-OPh (Q-V-O). Another group of cells were treated with media alone. After 1 h incubation, half of the cells supplemented with Q-V-O were treated with 2 μM DefNEtTrp or 2 μM cisplatin, as positive control, while the other half was treated with media alone. The final percentage of DMF was maintained at 0.5% (v/v). The MTT assay was performed with these samples (n=6). A student t-test was performed to evaluate the difference in the viability of cells treated with DefNEtTrp or cisplatin and supplemented with and without Q-V-O.

SMILES | IC50 [1] | hemolysis behavior relative to DefNEtTrp (minor hemolysis) (red blood cells) | HC10 and HC50 values (red blood cells; positive hemolytic control) | antiproliferative activity when cells are pretreated with Q-VD-OPh (Jurkat cells)
O=C(O)c1ccc(-n2nc(-c3ccccc3O)nc2-c2ccccc2O)cc1 [Def, deferasirox, reference compound] | 2.6 ± 0.15 µM | comparable |  | 
CC[C@H](C)[C@H](NC(=O)CN)C(=O)NCC(=O)N[C@@H](C)C(=O)N[C@H](C(=O)N[C@@H](CC(C)C)C(=O)N[C@@H](CCCCN)C(=O)N[C@H](C(=O)N[C@@H](CC(C)C)C(=O)N[C@H](C(=O)N[C@H](C(=O)NCC(=O)N[C@@H](CC(C)C)C(=O)N1CCC[C@H]1C(=O)N[C@@H](C)C(=O)N[C@@H](CC(C)C)C(=O)N[C@H](C(=O)N[C@@H](CO)C(=O)N[C@@H](Cc1c[nH]c2ccccc12)C(=O)N[C@H](C(=O)N[C@@H](CCCCN)C(=O)N[C@@H](CCCNC(=N)N)C(=O)N[C@@H](CCCCN)C(=O)N[C@@H](CCCNC(=N)N)C(=O)N[C@@H](CCC(N)=O)C(=O)N[C@@H](CCC(N)=O)C(N)=O)[C@@H](C)CC)[C@@H](C)CC)[C@@H](C)O)[C@@H](C)O)C(C)C)C(C)C [Melittin] |  |  | within the expected range | 
NCCNC(=S)N/N=C/c1ncccc1N [NEtTrp, nitrogen ethyl triapine dihydrochloride] | 5.9 ± 0.29 µM | comparable |  | 
NC(=S)NN=Cc1ncccc1N [Trp, 3-aminopyridine-2-carboxaldehyde-thiosemicarbazone, reference compound] | 1.1 ± 0.04 µM | comparable |  | 
N.N.[Cl][Pt][Cl] [cisplatin, reference compound] |  |  |  | less antiproliferative activity
